Values joined by “and” are separate entries in the source; they are usually repeats but may differ in a detail not shown here. Equal entries are not always repeated. Toxic doses and inconclusive results are not listed. Square brackets hold non-standard residues; d marks the D form. Peptide text beside a SMILES is read from it. * marks the point of attachment. Cbz = O=C(OCc1ccccc1)*; Abu = CC[CH](N)C(=O)O; OBn = c1ccc(CO*)cc1
System: L1210 leukemia ip in BDF1 mice, survival T/C
Assay: NCI In Vivo Anticancer Drug Screen. Data for tumor model L1210 Leukemia (intraperitoneal) in B6D2F1 (BDF1) mice
Conditions: endpoint: mean survival time, higher = longer survival
Summary of the method: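 Mice bearing the transplanted tumor received compound or vehicle. Survival of the treated group was divided by that of the vehicle-treated control group to give the ratio.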

[1] = dose: 15.0 mg/kg/injection, schedule: Q01DX Z (ip), vehicle: saline
[2] = dose: 30.0 mg/kg/injection, schedule: Q01DX Z (ip), vehicle: saline
[3] = dose: 50.0 mg/kg/injection, schedule: Q01DX001 (ip), vehicle: carboxymethylcellulose (CMC)
[4] = dose: 60.0 mg/kg/injection, schedule: Q01DX Z (oral), vehicle: saline
[5] = dose: 120.0 mg/kg/injection, schedule: Q01DX Z (oral), vehicle: saline
[6] = dose: 240.0 mg/kg/injection, schedule: Q01DX Z (oral), vehicle: saline
[7] = dose: 480.0 mg/kg/injection, schedule: Q01DX Z (oral), vehicle: saline
[8] = dose: 100.0 mg/kg/injection, schedule: Q01DX009 (ip), vehicle: Klucel (hydroxypropylcellulose) (HPC)
[9] = dose: 100.0 mg/kg/injection, schedule: Q04DX003 (ip), vehicle: Klucel (hydroxypropylcellulose) (HPC)
[10] = dose: 200.0 mg/kg/injection, schedule: Q01DX009 (ip), vehicle: Klucel (hydroxypropylcellulose) (HPC)
[11] = dose: 200.0 mg/kg/injection, schedule: Q04DX003 (ip), vehicle: Klucel (hydroxypropylcellulose) (HPC)
[12] = dose: 400.0 mg/kg/injection, schedule: Q01DX009 (ip), vehicle: Klucel (hydroxypropylcellulose) (HPC)
[13] = dose: 400.0 mg/kg/injection, schedule: Q04DX003 (ip), vehicle: Klucel (hydroxypropylcellulose) (HPC)
[14] = dose: 100.0 mg/kg/injection, schedule: Q04DX003 (ip), vehicle: saline with Tween-80
[15] = dose: 200.0 mg/kg/injection, schedule: Q04DX003 (ip), vehicle: saline with Tween-80
[16] = dose: 400.0 mg/kg/injection, schedule: Q04DX003 (ip), vehicle: saline with Tween-80
[17] = dose: 100.0 mg/kg/injection, schedule: Q01DX009 (ip), vehicle: saline with Tween-80
[18] = dose: 200.0 mg/kg/injection, schedule: Q01DX009 (ip), vehicle: saline with Tween-80
[19] = dose: 50.0 mg/kg/injection, schedule: Q01DX009 (ip), vehicle: Klucel (hydroxypropylcellulose) (HPC)
[20] = dose: 100.0 mg/kg/injection, schedule: Q01DX001 (ip), vehicle: carboxymethylcellulose (CMC)

## N=C(N)Cc1ccc(NC(=O)c2ccc(C(=O)Nc3ccc(CC(=N)N)cc3)cc2)cc1
dose: 3.75 mg/kg/injection, schedule: Q01DX Z (ip), vehicle: methylcellulose (MC)
  T/C: 108 % of control
dose: 3.75 mg/kg/injection, schedule: Q01DX Z (ip), vehicle: saline
  T/C: 89 % of control
dose: 7.5 mg/kg/injection, schedule: Q01DX Z (ip), vehicle: methylcellulose (MC)
  T/C: 108 % of control
[1]
  T/C: 155 % of control
dose: 15.0 mg/kg/injection, schedule: Q01DX Z (oral), vehicle: saline
  T/C: 105 % of control
dose: 16.5 mg/kg/injection, schedule: Q01DX009 (ip), vehicle: saline with Tween-80
  T/C: 171 % of control
dose: 22.0 mg/kg/injection, schedule: Q01DX001 (ip), vehicle: carboxymethylcellulose (CMC)
  T/C: 107 % of control and 109 % of control
dose: 25.0 mg/kg/injection, schedule: Q01DX009 (ip), vehicle: saline with Tween-80
  T/C: 219 % of control
dose: 25.0 mg/kg/injection, schedule: Q01DX009 (ip), vehicle: saline
  T/C: 174 % of control
dose: 25.0 mg/kg/injection, schedule: Q04DX003 (ip), vehicle: saline
  T/C: 107 % of control
dose: 30.0 mg/kg/injection, schedule: Q01DX Z (ip), vehicle: methylcellulose (MC)
  T/C: 116 % of control
[2]
  T/C: 103 % of control and 113 % of control
dose: 30.0 mg/kg/injection, schedule: Q01DX Z (oral), vehicle: saline
  T/C: 102 % of control
dose: 33.0 mg/kg/injection, schedule: Q01DX001 (ip), vehicle: carboxymethylcellulose (CMC)
  T/C: 112 % of control
dose: 33.0 mg/kg/injection, schedule: Q04DX003 (ip), vehicle: saline
  T/C: 107 % of control
dose: 37.5 mg/kg/injection, schedule: Q01DX009 (ip), vehicle: saline with Tween-80
  T/C: 120 % of control
[3]
  T/C: 117 % of control
[4]
  T/C: 108 % of control and 109 % of control
dose: 75.0 mg/kg/injection, schedule: Q04DX003 (ip), vehicle: saline
  T/C: 183 % of control
dose: 100.0 mg/kg/injection, schedule: Q04DX003 (ip), vehicle: saline
  T/C: 120 % of control
[5]
  T/C: 103 % of control and 108 % of control
[6]
  T/C: 112 % of control
[7]
  T/C: 106 % of control

## CC(/C=N/NC(N)=O)=N\NC(N)=O
[1]
  T/C: 107 % of control
[2]
  T/C: 107 % of control
dose: 60.0 mg/kg/injection, schedule: Q01DX Z (ip), vehicle: saline
  T/C: 89 % of control
[4]
  T/C: 91 % of control
[5]
  T/C: 89 % of control
[6]
  T/C: 91 % of control
[7]
  T/C: 91 % of control

## COc1ccc(NC(=O)Nc2ccc(Cl)cc2)cc1
[8]
  T/C: 97 % of control
[9]
  T/C: 104 % of control
[10]
  T/C: 98 % of control
[11]
  T/C: 104 % of control
[12]
  T/C: 93 % of control
[13]
  T/C: 106 % of control

## C=CC(=O)NC(C)C
[14]
  T/C: 102 % of control
[15]
  T/C: 104 % of control
[16]
  T/C: 86 % of control

## CC1(C)C2CCC(CCOC(=O)COc3ccc(Cl)cc3Cl)C1C2 (stereo not given)
[17]
  T/C: 104 % of control
[18]
  T/C: 94 % of control

## CCC(NC(=O)OCc1ccccc1)C(=O)NC(C(=O)OCc1ccccc1)C(C)CC (stereo not given) (Cbz-[Abu]-Ile-OBn; configuration not given here)
[14]
  T/C: 92 % of control
[15]
  T/C: 92 % of control
[16]
  T/C: 93 % of control

## COC(=O)C/C(=N\NC(=O)c1ccccc1)C(=O)OC
[19]
  T/C: 98 % of control
[8]
  T/C: 93 % of control
[10]
  T/C: 98 % of control
[12]
  T/C: 93 % of control

## CC(C)N1CSC(=S)N(Cc2ccccc2)C1
[19]
  T/C: 108 % of control
[8]
  T/C: 92 % of control
[9]
  T/C: 98 % of control
[10]
  T/C: 91 % of control
[11]
  T/C: 95 % of control
[12]
  T/C: 94 % of control
[13]
  T/C: 90 % of control

## N=c1ccccn1CC(O)COc1ccccc1 (stereo not given)
[20]
  T/C: 92 % of control

## Cc1ccccc1N1OS(=O)(=O)CC1(C#N)c1ccccc1 (stereo not given)
[17]
  T/C: 98 % of control
[18]
  T/C: 102 % of control
dose: 400.0 mg/kg/injection, schedule: Q01DX009 (ip), vehicle: saline with Tween-80
  T/C: 96 % of control

## Cc1cc(OC(=O)Nc2ccc(F)cc2)c(C(C)C)cc1Cl
[3]
  T/C: 90 % of control
dose: 50.0 mg/kg/injection, schedule: Q01DX009 (ip), vehicle: carboxymethylcellulose (CMC)
  T/C: 99 % of control and 101 % of control
dose: 50.0 mg/kg/injection, schedule: Q04DX002 (ip), vehicle: carboxymethylcellulose (CMC)
  T/C: 93 % of control and 96 % of control
[20]
  T/C: 103 % of control
dose: 100.0 mg/kg/injection, schedule: Q01DX009 (ip), vehicle: carboxymethylcellulose (CMC)
  T/C: 96 % of control and 99 % of control
dose: 100.0 mg/kg/injection, schedule: Q04DX002 (ip), vehicle: carboxymethylcellulose (CMC)
  T/C: 100 % of control and 106 % of control
dose: 200.0 mg/kg/injection, schedule: Q01DX001 (ip), vehicle: carboxymethylcellulose (CMC)
  T/C: 92 % of control
dose: 200.0 mg/kg/injection, schedule: Q01DX009 (ip), vehicle: carboxymethylcellulose (CMC)
  T/C: 94 % of control and 95 % of control
dose: 200.0 mg/kg/injection, schedule: Q04DX002 (ip), vehicle: carboxymethylcellulose (CMC)
  T/C: 95 % of control and 100 % of control

## CC(=O)Oc1ccc(OC(C)=O)c2c1C=CC=CC2
[14]
  T/C: 104 % of control
[15]
  T/C: 86 % of control
[16]
  T/C: 94 % of control

## O=C(NCCc1ccccc1)Nc1ccccc1
dose: 75.0 mg/kg/injection, schedule: Q01DX009 (ip), vehicle: saline with Tween-80
  T/C: 100 % of control
dose: 75.0 mg/kg/injection, schedule: Q04DX003 (ip), vehicle: saline with Tween-80
  T/C: 92 % of control
dose: 150.0 mg/kg/injection, schedule: Q01DX009 (ip), vehicle: saline with Tween-80
  T/C: 90 % of control
dose: 150.0 mg/kg/injection, schedule: Q04DX003 (ip), vehicle: saline with Tween-80
  T/C: 91 % of control
dose: 300.0 mg/kg/injection, schedule: Q01DX009 (ip), vehicle: saline with Tween-80
  T/C: 88 % of control
dose: 300.0 mg/kg/injection, schedule: Q04DX003 (ip), vehicle: saline with Tween-80
  T/C: 89 % of control

## CCCC(=O)N1CCCCCC1
dose: 100.0 mg/kg/injection, schedule: Q04DX002 (ip), vehicle: saline with Tween-80
  T/C: 92 % of control
dose: 200.0 mg/kg/injection, schedule: Q04DX002 (ip), vehicle: saline with Tween-80
  T/C: 113 % of control
dose: 400.0 mg/kg/injection, schedule: Q04DX002 (ip), vehicle: saline with Tween-80
  T/C: 95 % of control

## CC(=C/C(C)(C)C)/C(C)=C/C(C)(C)C
dose: 100.0 mg/kg/injection, schedule: Q01DX009 (ip), vehicle: saline
  T/C: 88 % of control

## Nc1cccc(Br)n1
dose: 37.5 mg/kg/injection, schedule: Q04DX002 (ip), vehicle: saline with Tween-80
  T/C: 88 % of control
dose: 75.0 mg/kg/injection, schedule: Q04DX002 (ip), vehicle: saline with Tween-80
  T/C: 91 % of control
dose: 150.0 mg/kg/injection, schedule: Q04DX002 (ip), vehicle: saline with Tween-80
  T/C: 104 % of control

## CCCCN(C)N=Nc1ccccc1C(N)=O
dose: 89.0 mg/kg/injection, schedule: Q01DX009 (ip), vehicle: Klucel (hydroxypropylcellulose) (HPC)
  T/C: 108 % of control
dose: 89.0 mg/kg/injection, schedule: Q01DX009 (ip), vehicle: other
  T/C: 108 % of control
dose: 133.0 mg/kg/injection, schedule: Q01DX009 (ip), vehicle: Klucel (hydroxypropylcellulose) (HPC)
  T/C: 122 % of control
dose: 133.0 mg/kg/injection, schedule: Q01DX009 (ip), vehicle: other
  T/C: 122 % of control
dose: 177.0 mg/kg/injection, schedule: Q01DX001 (ip), vehicle: other
  T/C: 97 % of control
[10]
  T/C: 115 % of control
dose: 200.0 mg/kg/injection, schedule: Q01DX009 (ip), vehicle: other
  T/C: 108 % of control
dose: 266.0 mg/kg/injection, schedule: Q01DX001 (ip), vehicle: other
  T/C: 113 % of control
dose: 300.0 mg/kg/injection, schedule: Q01DX009 (ip), vehicle: Klucel (hydroxypropylcellulose) (HPC)
  T/C: 111 % of control and 124 % of control
dose: 300.0 mg/kg/injection, schedule: Q01DX009 (ip), vehicle: other
  T/C: 95 % of control and 90 % of control
dose: 400.0 mg/kg/injection, schedule: Q01DX001 (ip), vehicle: other
  T/C: 101 % of control
